{"source": "patent US6844364B2", "about": "“Stabilization of retinoid compounds” (Johnson & Johnson Consumer Companies, Inc., priority 2001, dated 2005)", "format": "physicochemical", "procedure": "Finsolv® TN is a C12-15 alkyl benzoate from Fintex, Inc. (Elmwood Park, N.J.) Miglyol® 812 from Huls AG (Marl, Germany) and Neobee® 1053 from Stepan Company (Northfield, Ill.) are each a caprylic/capric triglyceride.\nThe general procedure to prepare the above formulations is as follows. A 500 mg of Compound 1 was weighed and transferred into an 800 ml glass beaker containing 500 g of one of the above carriers. The formulation was then stirred with a paddle mixer (stirrer type RZR50 from Caframo in Wiarton, Ontario, Canada) at 100 RPM setting until the compound was completely dissolved/dispersed in the carrier.\nAbout 20 g each of the resulting formulations were then packed into 24 clear glass scintillation vials of 20 ml volume (Wheaton Disposable Scintillation Vials from Wheaton Scientific in Milleville, N.J.) and labeled. Groups of eight of such vials were then stored at 4° C., RT (22° C.) and/or 40° C. for stability studies.\nThe samples of the formulations at each of the above three temperatures were then periodically analyzed for the chemical stability of Compound 1. The compound was assayed using high performance liquid chromatographic (HPLC) system. The results of this analysis is set forth in Table 2 setting forth the amount of Compound 1 remaining in the formulation following a certain number of days at specified temperatures."}
{"compound": "CCCCCc1cc2c(cc1C(=O)Oc1ccc(C(=O)O)cn1)C(C)(C)CCC2(C)C", "note": "[Compound I]", "values": [{"measurement": "Stabilization of the compound in topical liquid or semisolid pharmaceutical formulations", "value": "None of these formulations, however, were capable of sufficiently stabilizing the compound"}]}
